Measurements from patent US8993515B2, “Peptidomimetics comprising N-amino cyclic urea residues and uses thereof” (Valorisation-Recherche, Limited Partnership, priority 2012, dated 2015).
Residues, ends and D or L forms follow the SMILES beside them.

Tests used:
[1] = test system: NO production induced by TLR-2 agonist R-FSL-1 in J774 cells; experiment: Nitrite (NO) production induced by TLR-2 agonist R-FSL-1 in J774 cells; type: cell-based; conditions: 10^−6 M, 2 hr pre-exposure; R-FSL-1 300 ng/mL 17 hr
Description: J774 cells (ATCC passage 10 to 15) were cultured (2×10^5 cells/ml) in 24-well plates (Costar 3524 NY) in DMEM supplemented with FBS (10%).Three hours after plating, cell culture medium was replaced with 0.5 mL of the same medium containing 10^−6M of imidazolones derivatives for 2 hr pretreatment. Cells were then exposed to R-FSL1 (300 ng/ml) for 17 hr at 37° C. Cell culture media were collected and aliquots (10 μL) were mixed with 10 μL of 2,3 diaminonapthalene reagent (0.05 mg/mL in HCl 0.62M) for nitrite levels determination by fluorescence (λexc 365 nm and λem 430 nm) (Misko et al. (1993) Anal Biochem, 214, 11-16).

[2] = target: T1, recombinant soluble His-tagged CD36 (Homo sapiens, UniProt P16671); experiment: SPR spectroscopy binding to CD36; conditions: for Kd: SPR response for ligand 100 nM to 30 μM fitted to Langmuir isotherm; for SPR ΔλSPR (nm): SPR response on CD36 functionalized surface
T1 construct: recombinant soluble His-tagged CD36 functionalized surface
Description: The affinity of the small peptide ligand binding to a recombinant soluble His-tagged CD36 functionalized surface was screened by SPR sensing as previously described (Bolduc, O. R.; Lambert-Lanteigne, P.; Colin, D. Y.; Zhao, S. S.; Proulx, C.; Boeglin, D.; Lubell, W. D.; Pelletier, J. N.; Féthière, J.; Ong, H.; Masson, J.-F. Analyst. 2011, 136, 3142-3148). Briefly, the SPR sensors were prepared by immobilizing the His-tagged CD36 to 3-mercaptopropionyl-leucinyl-histidinyl-aspartyl-leucinyl-histidinyl-aspartic acid (3-Mpa-LHDLHD) with Nα,Nα-bis(carboxymethyl)-L-lysine at the C-terminus, a modified peptide monolayer competent to bind His-tagged biomolecules. A calibration curve of the SPR response for ligand concentrations ranging from 100 nM to 30 μM was fitted to the Langmuir isotherm (Equation 1) to determine K (K=1/Kd) for the CD36-ligand system. ΔλSPR=(K[ligand])ΔλSPRmax(1+K[ligand])^−1 (1)

[3] = test system: MAP kinase JNK phosphorylation induced by POVPC in RAW 264.7 murine macrophage cells; experiment: JNK assay: POVPC-induced JNK phosphorylation in RAW 264.7 macrophages; type: cell-based; conditions: for EC50: 2 h pre-treatment 10^−9 to 10^−6 M, then 10 μg/mL POVPC 30 min, phospho-JNK/total-JNK ratio, read-out: JNK-kinase cellular assay EC50; for inhibitory activity on MAP kinase JNK phosphorylation relative to [azaTyr^4]GHRP-6, in words: POVPC-stimulated RAW 264.7 cells
Description: RAW264.7 murine macrophage cells (American Type Culture Collection, Manassas, Va.) pre-treated with N-amino-imidazolin-2-one peptide for 2 h at concentration varying from 10^−9 to 10^−6 M were stimulated with 10 μg/mL POVPC (Cayman chemical, Ann Arbor, Mich.) for 30 min at 37° C. Cells were lysed on ice and centrifuged at 12,000×g. Aliquots of the resulting supernatant (30 μg of protein) were analyzed on SDS-PAGE and electrotransferred on nitrocellulose membrane. The revelation was performed by incubating the membrane with primary antibody against phospho-JNK or total-JNK (Cell signalling, Pickering, Canada) (1:500) overnight and with secondary HRP-conjugated goat anti-rabbit IgG antibody (Jackson Immunoresearch Laboratories Inc., West Grove, Pa.) (1:10,000) for 1 h. Membrane was visualized by chemiluminescence and intensity of bands was measured with Image Quant software (Molecular Dynamics, Sunnyvale, Calif.). The ratio of phospho-JNK/total-JNK was used to determine the phosphorylation state of JNK modulated by the tested peptide.
RAW 264.7 murine macrophage cells were seeded at 2×10^6 cells/well in a 6-well plate and starved in serum-free media overnight at 37° C. Cells were first pre-treated with the N-amino-imidazolin-2one peptide mimic at concentrations ranging from 10^−9 to 10^−6 M for 2 h and then stimulated with 10 μg/mL POVPC (Cayman chemical, Ann Arbor, Mich.) for 30 min at 37° C. Medium was then removed and cell plates were immediately frozen at −80° C. Cells were then scrapped into 100 μl of RIPA (50 mM Tris-HCl pH 7.5, 150 mM NaCl, 1% Triton X™-100, 0.1% SDS, 25 mM NaF) containing 1 mM PMSF and 1 mM Na3VO4, and incubated on ice for 30 min. The soluble fractions were isolated by centrifugation at 12,000×g for 30 min. The supernatant was collected and proteins were assayed with BCA reagent. Aliquots ([…]) were analyzed on 10% SDS-PAGE and electrotransferred on nitrocellulose membrane. Membrane was blocked with 5% BSA in TBS-T and incubated overnight with primary antibody against phospho-JNK or total-JNK (1:500) (Cell signalling, Pickering, Canada) in 5% BSA TBS-T. The membranes were then washed 5 times with TBS-T and incubated with secondary HRP-conjugated goat anti-rabbit IgG antibody (1:10,000) in 5% BSA TBS-T for 1 h at room temperature. The reaction was visualized by chemiluminescence using SuperSignal™ West Dura (Thermo scientific, Rockford, Ill.) and signals analyzed with Chemilmager™ 5500 (Alpha Innotech, San Leandro, Calif.). The intensity of each band was measured by densitometry using Image Quant™ software (Molecular Dynamics, Sunnyvale, Calif.) and the phosphorylation state was determined from the intensity ratio of phospho-JNK/total-JNK. To determine IC50 of inhibition curves, intensity ratio data were plotted using Prism™ 4 software (GraphPad, La Jolla, Calif.).

human TF-1 cells = experiment: IL-1β-induced thymocyte (TF-1) proliferation, CyQUANT NF dye; type: cell-based; conditions: peptide 1 μM; human IL-1β 25 ng/mL; 48 h
Description: Immune cell proliferation was assessed by DNA intercalation of CyQUANT NF® fluorescent dye (Invitrogen, Carlsbad, Calif., USA). Essentially, human TF-1 cells (CRL-2003, American Type Culture Collection) were cultured in complete RPMI 1640 (WISENT Inc., Montréal, Quebec, Canada) supplemented with human GM-CSF (2 ng/ml, PeptroTech, Rocky Hill, N.J., USA). Cells (passage 5 and at least 85% viable, as verified by trypan blue dying) were reincorporated into RPMI 1640 medium deprived of phenol red (Gibco Invitrogen®, Carlsbad, Calif., USA) and of growth factors [i.e. fetal bovine serum (FBS) and GM-CSF] for 18 h and split (5×10^3 cells in 200 μL/well) into 96-well non-adherent flat bottom culture plates (Sarstedt®, Nümbrecht, Germany). Following 15 min pre-incubation with peptide or peptidomimetic (1 μM), the cells were treated with human IL-1β (25 ng/mL, PeproTech®, Rocky Hill, N.J., USA) and re-incubated. After 48 h, the cells were centrifuged for 7 min at 300 g, reincorporated into Hank's Buffered Salt Solution (1×HBSS, 50 μL/well, Gibco Invitrogen®, Carlsbad, Calif., USA) and transferred into a 96-well polystyrene black plate (Corning Incorporated, Corning, N.Y., USA). An additional 50 μL solution made of CyQUANT NF® dye (component A, 1×) and CyQUANT NF™ delivery agent (component B, 1×) in 1×HBSS was added to the cells in each well, which were covered with aluminum foil and incubated for 45 min. Fluorescence intensity was measured using a microplate reader (Perkin Elmer Wallac Envision® 2104; Perkin Elmer®, California, USA) with excitation at 485 nm and emission detection at 530 nm (FITC 485 and FITC 531 filters, respectively). Hexaplicate experiments were repeated three times and results were analyzed by one-way analysis of variance (ANOVA) factoring for treatments, and data are presented as mean±standard error of the mean (SEM).

T1 sequence (P16671 30-439 limits assumed): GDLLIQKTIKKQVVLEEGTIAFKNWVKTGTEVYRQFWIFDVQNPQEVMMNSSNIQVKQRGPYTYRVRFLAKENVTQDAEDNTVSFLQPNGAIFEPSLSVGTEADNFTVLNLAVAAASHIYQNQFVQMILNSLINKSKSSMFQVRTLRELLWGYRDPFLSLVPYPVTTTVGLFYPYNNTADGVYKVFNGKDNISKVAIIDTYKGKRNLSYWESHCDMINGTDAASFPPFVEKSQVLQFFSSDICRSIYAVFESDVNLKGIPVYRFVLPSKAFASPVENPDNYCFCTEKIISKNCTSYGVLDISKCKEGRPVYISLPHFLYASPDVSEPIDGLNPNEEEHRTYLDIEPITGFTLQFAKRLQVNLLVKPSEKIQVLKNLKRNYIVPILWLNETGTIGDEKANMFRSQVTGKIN

## Cc1c(-c2ccccc2)n(NC(=O)[C@H](C)NC(=O)[C@@H](Cc2c[nH]c3ccccc23)NC(=O)[C@@H](N)Cc2cnc[nH]2)c(=O)n1C(Cc1ccccc1)C(=O)N[C@@H](CCCCN)C(N)=O (mixture of isomers) [DNDB3-01, His-D-Trp-Ala-(N-amino-4-methyl-5-phenyl-imidazolin-2-one)-DL-Phe-Lys-NH2]
[1]
  effect on nitrite/NO production induced by R-FSL-1, in words: comparable to that of EP80317

## Cc1ccc(-c2c(C)n(C(Cc3ccccc3)C(=O)N[C@@H](CCCCN)C(N)=O)c(=O)n2NC(=O)[C@H](C)NC(=O)[C@@H](Cc2c[nH]c3ccccc23)NC(=O)[C@@H](N)Cc2cnc[nH]2)cc1 (mixture of isomers) [DNDB3-03, His-D-Trp-Ala-(N-amino-4-methyl-5-p-toluoyl-imidazol-2-one)-DL-Phe-Lys-NH2]
[1]
  effect on nitrite/NO production induced by R-FSL-1, in words: comparable to that of EP80317

## Cc1cn(NC(=O)[C@H](C)NC(=O)[C@@H](Cc2c[nH]c3ccccc23)NC(=O)[C@@H](N)Cc2c[nH]cn2)c(=O)n1C(Cc1ccccc1)C(=O)N[C@@H](CCCCN)C(N)=O (stereo partly drawn) [31a, His-D-Trp-Ala-(N-amino-4-methyl-imidazolin-2-one)-D-Phe-Lys-NH2]
[2]
  Kd: 4.9 µM
  SPR ΔλSPR (nm): 1.1 nm
[3]
  EC50: 0.0554 µM
  inhibitory activity on MAP kinase JNK phosphorylation relative to [azaTyr^4]GHRP-6, in words: increased inhibitory activity

## C[C@H](NC(=O)[C@@H](Cc1c[nH]c2ccccc12)NC(=O)[C@@H](N)Cc1c[nH]cn1)C(=O)Nn1cc(Cc2ccccc2)n([C@H](Cc2ccccc2)C(=O)N[C@@H](CCCCN)C(N)=O)c1=O [31b, His-D-Trp-Ala-(N-amino-4-benzyl-imidazolin-2-one)-D-Phe-Lys-NH2]
[2]; SPR
  affinity for the CD36 receptor relative to [azaTyr^4]GHRP-6, in words: comparable affinity
[2]
  SPR ΔλSPR (nm): 1.6 nm
[3]
  EC50: > 10 µM
  inhibitory activity on MAP kinase JNK phosphorylation relative to [azaTyr^4]GHRP-6, in words: relatively lower inhibitory activity

## Cc1c(-c2ccccc2)n(NC(=O)[C@H](C)NC(=O)[C@@H](Cc2c[nH]c3ccccc23)NC(=O)[C@@H](N)Cc2cnc[nH]2)c(=O)n1[C@@H](Cc1ccccc1)C(=O)N[C@@H](CCCCN)C(N)=O [DND B2-109, His-D-Trp-Ala-(N-amino-4-methyl-5-phenyl-imidazol-2-one)-L-Phe-Lys-NH2]
[1]
  effect on nitrite/NO production induced by R-FSL-1, in words: comparable to that of EP80317

## CC(C)C[C@@H](NC(=O)[C@@H](CCC(=O)O)NC(=O)[C@@H](C(C)C)N1CC=CCN(NC(=O)[C@@H](Cc2ccc(O)cc2)NC(=O)[C@H](N)CCCNC(=N)N)C1=O)C(=O)N[C@H](C)C(N)=O [[Nad^3]-101.10, D-Arg-D-Tyr-Nad-D-Val-D-Glu-D-Leu-D-Ala-NH2] (HELM PEPTIDE1{[dR].[dY].[CC(C)[C@H](C(=O)[*:2])N1CC=CCN(N[*:1])C1=O].[dE].[dL].[dA].[am]}$$$$V2.0)
Human TF-1 cells
  exacerbated proliferation over the level of exogenous IL-1β: 53%

## CC(C)C[C@@H](NC(=O)[C@@H](CCC(=O)O)NC(=O)[C@@H](C(C)C)N1CCCN(NC(=O)[C@@H](Cc2ccc(O)cc2)NC(=O)[C@H](N)CCCNC(=N)N)C1=O)C(=O)N[C@H](C)C(N)=O [[Nap^3]-101.10, D-Arg-D-Tyr-Nap-D-Val-D-Glu-D-Leu-D-Ala-NH2] (HELM PEPTIDE1{[dR].[dY].[CC(C)[C@H](C(=O)[*:2])N1CCCN(N[*:1])C1=O].[dE].[dL].[dA].[am]}$$$$V2.0)
Human TF-1 cells
  diminished IL-1β-induced proliferation: 41%

## C[C@H](NC(=O)[C@@H](Cc1c[nH]c2ccccc12)NC(=O)[C@@H](N)Cc1c[nH]cn1)C(=O)NN(Cc1ccc(O)cc1)C(=O)N[C@H](Cc1ccccc1)C(=O)N[C@@H](CCCCN)C(N)=O [[azaTyr^4]GHRP-6, His-D-Trp-Ala-AzaTyr-D-Phe-Lys-NH2, reference compound] (HELM PEPTIDE1{H.[dW].A.[O=C(N(Cc1ccc(O)cc1)N[*:1])[*:2]].[dF].K.[am]}$$$$V2.0)
[2]
  SPR ΔλSPR (nm): 1.8 nm
[3]
  EC50: 0.214 µM

## C[C@H](NC(=O)[C@@H](Cc1c[nH]c2ccccc12)NC(=O)[C@@H](N)Cc1cnc[nH]1)C(=O)NN(Cc1ccc(O)cc1)C(=O)N[C@H](Cc1ccccc1)C(=O)N[C@@H](CCCCN)C(N)=O [[azaTyr^4]GHRP-6, His-D-Trp-Ala-AzaTyr-D-Phe-Lys-NH2, reference compound] (HELM PEPTIDE1{H.[dW].A.[O=C(N(Cc1ccc(O)cc1)N[*:1])[*:2]].[dF].K.[am]}$$$$V2.0)
[2]
  Kd: 5 µM

## HAlC-2MeDTrp-DLys-Trp-DPhe-Lys-NH2 [EP80317, reference compound]
[1]
  effect on nitrite/NO production induced by R-FSL-1, in words: negatively modulated nitrite production

## His-D-Trp-Ala-(N-amino-4-methyl-imidazolin-2-one)-D-Phe-Lys-NH2 [YGR 401-2]
[1]
  effect on nitrite/NO production induced by R-FSL-1, in words: comparable to that of EP80317

## His-D-Trp-Ala-(N-amino-4-methyl-imidazolin-2-one)-L-Phe-Lys-NH2 [YGR401-1]
[1]
  effect on nitrite/NO production induced by R-FSL-1, in words: comparable to that of EP80317

## His-azaPheAla-Trp-DPhe-Ala-NH2 [CP-1A(i), reference compound]
[1]
  effect on nitrite/NO production induced by R-FSL-1, in words: did not modulate NO production
